Test results as given in US12331044B2, “Inhibitors of histone deacetylase useful for the treatment or prevention of HIV infection” (Merck Sharp & Dohme LLC, priority 2018, dated 2025).
pIC50: −log10 of the molar value. Where two headings read alike, the source gives them in different places.

Experiments:
[1] = target: human HDAC2 (Homo sapiens (Human), UniProt Q92769); experiment: HDAC2 inhibition assay (modified FLUOR DE LYS, 384-well); format: biochemical; conditions: 40 μM substrate BML-KI104, 3 h pre-incubation, read-out: HDAC2 IC50; for IC50: […] nM enzyme; for pIC50: […] enzyme
[2] = target: human HDAC8 (Homo sapiens (Human), UniProt Q9BY41); experiment: HDAC8 inhibition assay (modified FLUOR DE LYS, 384-well); format: biochemical; conditions: 200 μM substrate BML-KI178, 3 h pre-incubation, read-out: HDAC8 IC50; for IC50: […] nM enzyme; for pIC50: […] enzyme
[3] = tested on: KARN cells (Jurkat 2C4); experiment: cells; conditions: Homo sapiens
[4] = target: T1, human HDAC1 (Homo sapiens (Human), UniProt Q13547); experiment: biochemical
[5] = target: T2, HDAC6 (Homo sapiens (Human), UniProt Q9UBN7); experiment: biochemical
Experimental: (§1) The histone deacetylase activities of HDAC1, HDAC2, HDAC3, HDAC6, and HDAC8 were measured in modified FLUOR DE LYS assays in 384-well format. In this assay, HDAC enzymes are initially incubated with an F-acetyl (or -trifluoroacetyl)-L-lysine-containing substrate with a C-terminal amide having aminomethylcoumarin as the amine component. HDACs cleave the F-acetyl group, rendering the resulting product susceptible to AMC cleavage by trypsin. The released AMC is then detected by its fluorescence. […] All steps were performed at room temperature (23° C.). The assay was performed by pre-incubating serial dilutions of test compounds with the target HDAC prior to initiation with substrate. […] Final conditions used for each assay were: 1. […] The reactions were stopped and developed by addition of 30 ul of HDAC developer solution containing a saturating level of HDAC inhibitor as follows: 1. […] For data analysis, background subtracted product (fluorescence) vs. time data for each inhibitor concentration was fitted using a 4-parameter fit.

[6] = target: T1, human HDAC1
[7] = target: human HDAC3/SMRT heterodimer (Homo sapiens (Human), UniProt O15379)
[8] = target: T2, HDAC6
Experimental: as §1

[9] = read-out: Karn EC50 nM 0.1% NHS, 0.1% normal human serum, luciferase induction, 2 μM SAHA = 100%
[10] = read-out: Karn EC50 nM 5% NHS, 5% normal human serum, luciferase induction, 2 μM SAHA = 100%

T2 sequence (Q9UBN7 whole entry): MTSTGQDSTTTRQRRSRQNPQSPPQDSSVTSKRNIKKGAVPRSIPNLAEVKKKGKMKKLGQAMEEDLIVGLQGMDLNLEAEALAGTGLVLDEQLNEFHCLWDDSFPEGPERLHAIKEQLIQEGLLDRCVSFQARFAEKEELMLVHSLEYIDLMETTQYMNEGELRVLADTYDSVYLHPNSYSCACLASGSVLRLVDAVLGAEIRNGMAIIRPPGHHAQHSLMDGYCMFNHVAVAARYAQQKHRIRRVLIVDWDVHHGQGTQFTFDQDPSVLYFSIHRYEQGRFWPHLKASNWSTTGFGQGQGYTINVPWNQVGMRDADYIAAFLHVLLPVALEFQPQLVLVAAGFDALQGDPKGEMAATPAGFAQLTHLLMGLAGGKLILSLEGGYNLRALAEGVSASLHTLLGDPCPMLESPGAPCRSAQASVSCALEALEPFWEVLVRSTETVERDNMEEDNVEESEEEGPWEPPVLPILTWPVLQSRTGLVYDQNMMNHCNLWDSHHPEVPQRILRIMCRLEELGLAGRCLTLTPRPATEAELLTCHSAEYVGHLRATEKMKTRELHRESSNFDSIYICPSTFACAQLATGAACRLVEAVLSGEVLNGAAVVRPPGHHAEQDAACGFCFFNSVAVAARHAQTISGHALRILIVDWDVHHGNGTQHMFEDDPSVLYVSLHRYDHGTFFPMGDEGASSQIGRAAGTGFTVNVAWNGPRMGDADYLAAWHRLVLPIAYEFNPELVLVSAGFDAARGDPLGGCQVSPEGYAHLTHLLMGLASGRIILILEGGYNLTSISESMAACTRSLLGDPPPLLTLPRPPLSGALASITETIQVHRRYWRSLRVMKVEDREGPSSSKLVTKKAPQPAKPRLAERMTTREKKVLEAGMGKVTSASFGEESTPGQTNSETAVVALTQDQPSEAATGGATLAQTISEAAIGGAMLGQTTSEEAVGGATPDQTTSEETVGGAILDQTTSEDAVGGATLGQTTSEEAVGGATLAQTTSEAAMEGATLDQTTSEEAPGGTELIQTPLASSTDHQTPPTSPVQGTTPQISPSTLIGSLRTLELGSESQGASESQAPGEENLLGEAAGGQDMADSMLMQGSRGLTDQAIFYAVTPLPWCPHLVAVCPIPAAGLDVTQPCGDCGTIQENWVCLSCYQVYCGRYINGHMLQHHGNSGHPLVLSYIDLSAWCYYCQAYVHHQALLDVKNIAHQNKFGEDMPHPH
T1 sequence (Q13547 whole entry): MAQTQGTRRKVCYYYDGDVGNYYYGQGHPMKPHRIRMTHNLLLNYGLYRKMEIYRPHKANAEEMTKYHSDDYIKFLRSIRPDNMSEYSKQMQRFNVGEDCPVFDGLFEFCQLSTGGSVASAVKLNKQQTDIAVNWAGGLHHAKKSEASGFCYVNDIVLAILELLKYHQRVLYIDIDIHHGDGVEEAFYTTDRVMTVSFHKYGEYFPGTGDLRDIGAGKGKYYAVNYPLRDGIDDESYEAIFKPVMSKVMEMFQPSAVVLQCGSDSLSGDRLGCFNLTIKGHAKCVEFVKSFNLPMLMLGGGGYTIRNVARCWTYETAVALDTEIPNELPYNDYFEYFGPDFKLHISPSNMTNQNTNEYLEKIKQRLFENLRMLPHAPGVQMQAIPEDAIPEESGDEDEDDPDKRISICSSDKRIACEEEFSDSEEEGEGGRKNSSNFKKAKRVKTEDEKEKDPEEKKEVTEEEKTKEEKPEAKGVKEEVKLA
Sequence of human HDAC2 (Q92769 whole entry): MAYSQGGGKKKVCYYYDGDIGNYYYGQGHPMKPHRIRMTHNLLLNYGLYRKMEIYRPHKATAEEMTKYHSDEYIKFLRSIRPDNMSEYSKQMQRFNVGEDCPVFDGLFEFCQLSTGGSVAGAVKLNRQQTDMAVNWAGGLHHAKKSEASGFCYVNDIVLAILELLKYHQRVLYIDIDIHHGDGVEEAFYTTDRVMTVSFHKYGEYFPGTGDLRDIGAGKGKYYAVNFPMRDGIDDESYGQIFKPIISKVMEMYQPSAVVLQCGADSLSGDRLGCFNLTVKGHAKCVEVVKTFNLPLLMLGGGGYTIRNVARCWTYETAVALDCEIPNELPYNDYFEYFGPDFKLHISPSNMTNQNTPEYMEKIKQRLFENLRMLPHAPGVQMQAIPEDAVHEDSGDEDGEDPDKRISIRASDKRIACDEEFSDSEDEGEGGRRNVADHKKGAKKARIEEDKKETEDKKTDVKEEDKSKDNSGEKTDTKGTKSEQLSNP
Sequence of human HDAC8 (Q9BY41 whole entry): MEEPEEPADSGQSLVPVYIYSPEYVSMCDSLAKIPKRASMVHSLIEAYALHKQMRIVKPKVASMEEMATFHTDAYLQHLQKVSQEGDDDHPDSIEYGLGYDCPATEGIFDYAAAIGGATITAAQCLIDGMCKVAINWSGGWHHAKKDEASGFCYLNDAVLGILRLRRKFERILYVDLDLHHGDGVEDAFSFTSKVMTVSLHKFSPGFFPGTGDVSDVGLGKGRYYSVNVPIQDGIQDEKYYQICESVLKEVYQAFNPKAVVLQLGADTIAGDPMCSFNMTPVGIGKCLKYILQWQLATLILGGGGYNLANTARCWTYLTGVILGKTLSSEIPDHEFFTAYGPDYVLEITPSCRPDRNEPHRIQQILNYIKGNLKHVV
Sequence of human HDAC3/SMRT heterodimer (O15379 whole entry): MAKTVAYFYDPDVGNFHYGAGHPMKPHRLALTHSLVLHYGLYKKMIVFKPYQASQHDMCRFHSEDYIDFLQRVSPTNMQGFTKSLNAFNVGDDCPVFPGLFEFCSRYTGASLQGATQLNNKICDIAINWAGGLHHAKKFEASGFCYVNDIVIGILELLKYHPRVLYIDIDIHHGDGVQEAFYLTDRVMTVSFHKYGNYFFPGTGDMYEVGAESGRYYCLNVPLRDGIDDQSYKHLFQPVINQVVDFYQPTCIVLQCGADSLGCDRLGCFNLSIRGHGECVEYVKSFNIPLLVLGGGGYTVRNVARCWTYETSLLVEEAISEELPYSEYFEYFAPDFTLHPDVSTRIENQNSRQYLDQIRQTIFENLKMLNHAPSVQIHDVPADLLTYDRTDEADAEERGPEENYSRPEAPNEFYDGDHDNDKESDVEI
Sequence of human HDAC3/SMRT heterodimer (Q9Y618 1-899 partner): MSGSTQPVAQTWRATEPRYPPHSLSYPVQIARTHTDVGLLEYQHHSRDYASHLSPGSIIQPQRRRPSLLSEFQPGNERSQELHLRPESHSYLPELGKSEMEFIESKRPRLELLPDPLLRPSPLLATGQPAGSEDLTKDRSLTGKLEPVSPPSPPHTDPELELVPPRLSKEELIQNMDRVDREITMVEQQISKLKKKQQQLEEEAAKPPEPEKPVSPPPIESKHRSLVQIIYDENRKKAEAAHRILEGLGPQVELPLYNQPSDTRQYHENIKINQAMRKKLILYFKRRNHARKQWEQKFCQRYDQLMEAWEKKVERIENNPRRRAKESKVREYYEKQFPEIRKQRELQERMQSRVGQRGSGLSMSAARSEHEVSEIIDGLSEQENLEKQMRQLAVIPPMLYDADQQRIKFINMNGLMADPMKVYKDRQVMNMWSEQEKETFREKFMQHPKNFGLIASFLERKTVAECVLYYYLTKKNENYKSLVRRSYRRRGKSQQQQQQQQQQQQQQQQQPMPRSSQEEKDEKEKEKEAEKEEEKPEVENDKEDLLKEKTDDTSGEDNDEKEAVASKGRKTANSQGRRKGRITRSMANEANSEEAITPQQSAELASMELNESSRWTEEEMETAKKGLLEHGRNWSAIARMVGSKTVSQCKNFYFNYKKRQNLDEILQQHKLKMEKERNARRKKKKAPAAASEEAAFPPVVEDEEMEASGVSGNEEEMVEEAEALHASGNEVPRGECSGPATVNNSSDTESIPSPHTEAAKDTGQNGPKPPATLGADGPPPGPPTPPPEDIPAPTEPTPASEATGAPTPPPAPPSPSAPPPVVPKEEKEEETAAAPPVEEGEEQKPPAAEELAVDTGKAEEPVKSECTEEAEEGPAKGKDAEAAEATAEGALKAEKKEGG

| SMILES | IC50 [1] | IC50 [2] | EC50 [3, 9] | EC50 [3, 10] | pIC50 [4] | pIC50 [5] | pIC50 [1] | pIC50 [2] | pIC50 [6] | pIC50 [7] | pIC50 [8] |
| --- | --- | --- | --- | --- | --- | --- | --- | --- | --- | --- | --- |
| COc1cc2ncccc2cc1-c1c[nH]c([C@@H](N)CCCCCC(=O)c2ccon2)n1 [Example 34, (S)-7-amino-1-(isoxazol-3-yl)-7-(4-(7-methoxyquinolin-6-yl)-1H-imidazol-2-yl)heptan-1-one] | 5.1 nM | 120 nM | 23 nM | 44 nM | 8.85 | 5.25 |  |  |  |  |  |
| N[C@@H](CCCCCC(=O)c1cocn1)c1ncc(-c2ccccc2F)[nH]1 [Example 36, (S)-7-amino-7-(5-(2-fluorophenyl)-1H-imidazol-2-yl)-1-(oxazol-4-yl)heptan-1-one] |  | > 900 nM |  |  |  | < 6.05 |  |  |  |  |  |
| Cc1ccc2cc(-c3c[nH]c([C@@H](N)CCCCCC(=O)c4ncco4)n3)ccc2n1 [Example 9, (S)-7-amino-7-(4-(2-methylquinolin-6-yl)-1H-imidazol-2-yl)-1-(oxazol-2-yl)heptan-1-one] | 12 nM | 2000 nM | 160 nM | 160 nM | 8.62 | 5.64 |  |  |  |  |  |
| COc1cc2nc(C)ccc2cc1-c1cnc([C@H](CCCCCC(=O)c2ncco2)NC(=O)c2cc3ncccn3n2)[nH]1 [Example 161, N-[(1S)-1-[5-(7-methoxy-2-methylquinolin-6-yl)-1H-imidazol-2-yl]-7-(1,3-oxazol-2-yl)-7-oxoheptyl]pyrazolo[1,5-a]pyrimidine-2-carboxamide] |  |  | 75 nM | 210 nM |  |  | 7.96 | 7.36 | 8.77 | 9.24 | < 6.05 |
| COc1cc2nc(C)ccc2cc1-c1cnc([C@H](CCCCCC(=O)c2ncco2)NC(=O)Cn2ccc(C)n2)[nH]1 [Example 166, N-[(1S)-1-[5-(7-methoxy-2-methylquinolin-6-yl)-1H-imidazol-2-yl]-7-(1,3-oxazol-2-yl)-7-oxoheptyl]-2-(3-methyl-1H-pyrazol-1-yl)acetamide] |  |  | 77 nM | 200 nM |  |  | 8.21 | 7.12 | 8.77 | 9.25 | 6.18 |
| COc1nc2ccccc2cc1-c1cnc([C@H](CCCCCC(=O)c2ncco2)NC(=O)c2ccncn2)[nH]1 [Example 149, N-[(1S)-1-[5-(2-methoxyquinolin-3-yl)-1H-imidazol-2-yl]-7-(1,3-oxazol-2-yl)-7-oxoheptyl]pyrimidine-4-carboxamide] |  |  | 69 nM | 360 nM |  |  | 8.18 | 6.85 | 8.77 | 8.82 | 4.68 |
| COc1cc2nc(C)ccc2cc1-c1cnc([C@H](CCCCCC(=O)c2ncco2)NC(=O)C2(C)CCCCO2)[nH]1 (stereo partly drawn) [Example 170, N-[(1S)-1-[5-(7-methoxy-2-methylquinolin-6-yl)-1H-imidazol-2-yl]-7-(1,3-oxazol-2-yl)-7-oxoheptyl]-2-methyltetrahydro-2H-pyran-2-carboxamide] |  |  | 160 nM | 260 nM |  |  | 7.77 | 6.66 | 8.39 | 8.80 | < 6.05 |
| CN1CCC2(CC1)C[C@@H]2C(=O)N[C@@H](CCCCCC(=O)c1ncco1)c1[nH]c(-c2ccc(F)cc2)nc1C#N [Example 187, (S)-N-((S)-1-(4-cyano-2-(4-fluorophenyl)-1H-imidazol-5-yl)-7-(oxazol-2-yl)-7-oxoheptyl)-6-methyl-6-azaspiro[2.5]octane-1-carboxamide] |  |  | 20 nM | 25 nM |  |  | 9.08 | 6.77 | 9.80 | 9.80 | 4.35 |
| COc1cc2nc(C)ccc2cc1-c1cnc([C@H](CCCCCC(=O)c2cc(C)on2)NC(=O)C2CC23CCN(C)CC3)[nH]1 (stereo partly drawn) [Example 58] |  |  | 6.8 nM | 11 nM |  |  | 9.05 | 6.92 | 9.74 | 9.74 | 4.35 |
| CCN(CC)CC(=O)N[C@@H](CCCCCC(=O)c1ncco1)c1ncc(-c2cc3ccccc3nc2OC)[nH]1 [Example 50] |  |  | 21 nM | 140 nM |  |  | 8.49 | 7.33 | 9.00 | 8.89 | 5.77 |
| CN1CCC2(CC1)C[C@@H]2C(=O)N[C@@H](CCCCCC(=O)c1ccon1)c1nc(-c2ccccc2F)c[nH]1 [Example 39] |  |  | 3 nM | 4 nM |  |  | 9.24 | 8.70 | 10.00 | 9.89 | 4.35 |
| CN1CC(C(=O)N[C@@H](CCCCCC(=O)c2ncco2)c2ncc(-c3cc(OC4CCC4)ccc3F)[nH]2)C1 [Example 181, N-[(1S)-1-{5-[5-(cyclobutyloxy)-2-fluorophenyl]-1H-imidazol-2-yl}-7-(1,3-oxazol-2-yl)-7-oxoheptyl]-1-methylazetidine-3-carboxamide] |  |  | 84 nM | 630 nM |  |  | 7.89 | 7.92 | 8.59 | 9.00 | < 6.05 |
| COc1cc2nc(C)ccc2cc1-c1cnc([C@H](CCCCCC(=O)c2ncco2)NC(=O)C2CCCO2)[nH]1 (stereo partly drawn) [Example 169, N-[(1S)-1-[5-(7-methoxy-2-methylquinolin-6-yl)-1H-imidazol-2-yl]-7-(1,3-oxazol-2-yl)-7-oxoheptyl]tetrahydrofuran-2-carboxamide] |  |  | 99 nM | 270 nM |  |  | 7.82 | 6.74 | 8.47 | 8.92 | < 6.05 |
| COc1cc2nc(C)ccc2cc1-c1cnc([C@H](CCCCCC(=O)c2ncco2)NC(=O)C2COCCO2)[nH]1 (stereo partly drawn) [Example 173, N-[(1S)-1-[5-(7-methoxy-2-methylquinolin-6-yl)-1H-imidazol-2-yl]-7-(1,3-oxazol-2-yl)-7-oxoheptyl]-1,4-dioxane-2-carboxamide] |  |  | 42 nM | 74 nM |  |  | 8.49 | 7.08 | 8.96 | 9.37 | < 6.05 |
| CN[C@@H](CCCCCC(=O)c1ncco1)c1ncc(-c2ccc3nc(C)ccc3c2)[nH]1 [Example 75, (S)-7-(methylamino)-7-(5-(2-methylquinolin-6-yl)-1H-imidazol-2-yl)-1-(oxazol-2-yl)heptan-1-one] |  |  | 300 nM | 220 nM |  |  | 8.15 | 5.47 | 8.62 | 8.41 | 4.59 |
| Cn1cc2cc(-n3ccc([C@@H](N)CCCCCC(=O)c4ncco4)n3)ccc2n1 [Example 128, (7S)-7-amino-7-[1-(2-methyl-2H-indazol-5-yl)-1H-pyrazol-3-yl]-1-(1,3-oxazol-2-yl)heptan-1-one] |  |  | 1200 nM | 1500 nM |  |  | 7.26 | 5.37 | 8.10 | 8.00 | 4.35 |
| N[C@@H](CCCCCC(=O)c1ncco1)c1nc(-c2ccc3nn(C4CC4)cc3c2)c[nH]1 [Example 14] |  |  | 390 nM | 270 nM |  |  | 8.35 | 5.51 | 9.05 | 8.96 | 4.35 |
| COc1cc2c(ccc(=O)n2C)cc1-c1cnc([C@H](CCCCCC(=O)c2ncco2)NC(=O)CN(C)C)[nH]1 [Example 92] |  |  | 32 nM | 64 nM |  |  | 8.21 | 7.24 | 9.04 | 8.96 | 5.35 |
| CN(C)CC(=O)N[C@@H](CCCCCC(=O)c1ncco1)c1ncc(-c2ccc3c(ccc(=O)n3C)c2)[nH]1 [Example 46] |  |  | 31 nM | 44 nM |  |  | 8.02 | 7.04 | 8.77 | 8.82 | 4.35 |
| N[C@@H](CCCCCC(=O)c1ncco1)c1ncc(-c2ccc(C(F)(F)F)cc2F)[nH]1 [Example 139, (7S)-7-amino-7-{5-[2-fluoro-4-(trifluoromethyl)phenyl]-1H-imidazol-2-yl}-1-(1,3-oxazol-2-yl)heptan-1-one] |  |  | 1700 nM | 2700 nM |  |  | 7.55 | < 6.05 | 8.25 | 8.23 | < 6.05 |
| CN(C)C1(C(=O)N[C@@H](CCCCCC(=O)c2ccon2)c2ncc(-c3ccccc3F)[nH]2)CCC1 [Example 63] |  |  | 11 nM | 32 nM |  |  | 8.68 | 8.42 | 9.27 | 9.34 | < 6.05 |
| COc1cc(-c2cnc([C@H](CCCCCC(=O)c3ncco3)NC(=O)C3CN(C)C3)[nH]2)c(F)cn1 [Example 178, N-[(1S)-1-[5-(5-fluoro-2-methoxypyridin-4-yl)-1H-imidazol-2-yl]-7-(1,3-oxazol-2-yl)-7-oxoheptyl]-1-methylazetidine-3-carboxamide] |  |  | 80 nM | 1000 nM |  |  | 8.11 | 7.08 | 8.70 | 8.82 | 5.28 |
